Test results reported in ChEMBL document CHEMBL1806351, “Synthesis of C-1 homologues of pancratistatin and their preliminary biological evaluation” (Bioorg Med Chem Lett, 2011).

What was measured:
Type in all cases: functional, cell-based
BXPC-3 = assay: Antiproliferative activity against human BxPC3 cells assessed as viable cells after 48 hrs by MTT assay; details: BXPC-3, 48 h
DU-145 = assay: Antiproliferative activity against human DU145 cells assessed as viable cells after 48 hrs by MTT assay; details: DU-145, 48 h
NCI-H460 = assay: Antiproliferative activity against human NCI-H460 cells assessed as viable cells after 48 hrs by MTT assay; details: NCI-H460, 48 h
MCF7 = assay: Antiproliferative activity against human MCF7 cells assessed as viable cells after 48 hrs by MTT assay; details: MCF7, 48 h

O=C1N[C@H]2[C@H](O)[C@H](O)[C@@H](O)[C@H](CO)[C@@H]2c2cc3c(cc21)OCO3
IC50 (BXPC-3): 770 nM | IC50 (DU-145): 1100 nM | IC50 (NCI-H460): 400 nM | IC50 (MCF7): 860 nM

CC(=O)OC[C@H]1[C@H](O)[C@@H](O)[C@@H](O)[C@@H]2NC(=O)c3cc4c(cc3[C@@H]12)OCO4
IC50 (BXPC-3): 340 nM | IC50 (DU-145): 720 nM | IC50 (NCI-H460): 530 nM | IC50 (MCF7): 1810 nM

O=C1N[C@H]2[C@H](O)[C@H](O)[C@@H](O)[C@H](CO)[C@@H]2c2cc3c(c(O)c21)OCO3
IC50 (BXPC-3): 220 nM | IC50 (DU-145): 90 nM | IC50 (NCI-H460): 90 nM | IC50 (MCF7): 240 nM

CC(=O)OC[C@H]1[C@H](O)[C@@H](O)[C@@H](O)[C@@H]2NC(=O)c3c(cc4c(c3O)OCO4)[C@@H]12
IC50 (BXPC-3): 70 nM | IC50 (DU-145): 60 nM | IC50 (NCI-H460): 70 nM | IC50 (MCF7): 520 nM

O=C1N[C@@H]2C(=C[C@H](O)[C@@H](O)[C@H]2O)c2cc3c(c(O)c21)OCO3 [NARCICLASINE]
IC50 (BXPC-3): 50 nM | IC50 (DU-145): 50 nM | IC50 (NCI-H460): 40 nM | IC50 (MCF7): 40 nM
